According to patent US11786555B2, “RAR selective agonists in combination with immune modulators for cancer immunotherapy” (IO THERAPEUTICS, INC., priority 2017, dated 2023):

How the values were obtained:
[1] = system: naive CD4+ CD25− FoxP3− cells; test: in vitro Th17 cell differentiation; format: cell-based, mouse; conditions: 0.1 nM
Description: To determine whether a RARα agonist could affect T cell differentiation, T cells were incubated with a RARα agonist to determine its effect on Foxp3 expression. Naive CD4^+ CD25^− FoxP3^− cells were purified from a Foxp3-GFP mouse using flow cytometry by sorting and isolating based upon a GFP^− phenotype. These cells were activated polyclonally with αCD3 in vitro in the presence of IL-2 and TGF-β. These cells were then cultured in media with various concentrations of compound IRX5183 (a RARα agonist) and the expression of FoxP3-GFP was analyzed by flow cytometry. The RARα agonist compound IRX5183 enhanced differentiation of immunosuppressive Treg cells and inhibited differentiation of inflammatory TH17 cells from naïve T cells in vitro (Table 2).

[2] = molecular target: T1, RARγ (Homo sapiens, UniProt P13631); test: displacement assay, agonist binding affinity; conditions: read-out: Binding Affinities for RARγ
T1 sequence (P13631 1-454): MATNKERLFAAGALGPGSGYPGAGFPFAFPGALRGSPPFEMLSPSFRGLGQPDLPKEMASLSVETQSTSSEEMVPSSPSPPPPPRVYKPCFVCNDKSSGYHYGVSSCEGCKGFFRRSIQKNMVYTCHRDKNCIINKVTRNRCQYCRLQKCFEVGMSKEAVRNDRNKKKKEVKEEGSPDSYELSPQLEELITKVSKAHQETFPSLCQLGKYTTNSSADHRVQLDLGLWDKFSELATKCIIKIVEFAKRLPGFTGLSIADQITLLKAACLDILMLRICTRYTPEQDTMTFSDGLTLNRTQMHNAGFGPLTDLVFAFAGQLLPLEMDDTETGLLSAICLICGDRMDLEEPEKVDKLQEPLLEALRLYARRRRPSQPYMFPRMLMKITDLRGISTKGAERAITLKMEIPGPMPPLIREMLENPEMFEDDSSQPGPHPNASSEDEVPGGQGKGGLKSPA
Description: Binding assays are performed using a classic competition assay format in which cloned receptor RAR molecules are first loaded with radiolabeled all-trans-retinoic acid […] and then the amount of radioactivity liberated with increasing concentration of test compound is measured.

[3] = system: Kasumi-1 cells; test: CFU experiments, off and on stroma; format: cell-based; conditions: 10^−6 M ATRA, IRX5183, or 10^−7 M AM80
Source text: (§1) Data across three independent experiments.

[4] = system: NB4 cells; test: CFU experiments, off and on stroma; format: cell-based; conditions: 10^−7 M ATRA, IRX5183, or 10^−8 M AM80
Source text: as §1

[5] = system: OCI-AML3 cells; test: CFU experiments, off and on stroma; format: cell-based; conditions: 10^−6 M ATRA, IRX5183, or 10^−7 M AM80
Source text: as §1

Kd [2]: > 10 µM
SMILES: CC1(C)CCC(C)(C)c2c1cc(C(=O)Nc1cc(F)c(C(=O)O)c(F)c1)c(O)c2Cl [IRX5183]
Th17 cell Percent Differentiation [1]: 32%
clonogenic growth (CFU), differentiation and elimination of AML [3]: decrease in clonogenic growth compared to control
clonogenic growth (CFU), differentiation and elimination of AML [4]: decrease in clonogenic growth compared to control
clonogenic growth (CFU), differentiation and elimination of AML [5]: decrease in clonogenic growth compared to control
